{"source": "paper PMC9030223", "about": "“MBP-11901 Inhibits Tumor Growth of Hepatocellular Carcinoma through Multitargeted Inhibition of Receptor Tyrosine Kinases” (Cancers, 2022)", "assay_in_all_cases": "CCK-8 cell proliferation/cytotoxicity assay", "format_in_all_cases": "cell-based", "key": {"[1]": {"tested_on": "PLC/PRF5", "conditions": "Homo sapiens, PLC-PRF-5; PLC/PRF5, 24 h treatment", "experimental": "(§1) Cell proliferation was detected using the Cell Counting Kit-8 (CCK-8, Cat. CK04-13; Dojindo Laboratories, Kumamoto, Japan) according to the manufacturer’s instruction. To evaluate cytotoxicity, cells were seeded in a 96-well plate (FHC, 1 × 10^4 cells/well; Caki-2, PLC/PFR.5, and MCF 10A, 1 × 10^4 cells/well; AML12, HepG2, Hep3B, and Huh-7 1.2 × 10^4 cells/well; HeLa, HEK-293, A549, and PC-3, 1.5 × 10^4 cells/well; HT-29, MCF-7, C6, and NE-4C, 2 × 10^4 cells/well). After attachment and stabilization of cells for 24 h, the medium was switched with fresh containing various concentrations (0, 1, 5, 10, 25, 50, and 100 μM) of MBP-11901, and cells were incubated for 22 h. Next, CCK-8 solution was added to each well, and cells were incubated for another 2 h. Absorbance was then measured at 450 nm using a microplate reader (SpectraMax i3, Molecular Devices, San Jose, CA, USA). The IC50 and log IC50 values were calculated using GraphPad Prism (version 5.02; GraphPad PRISM software Inc. San Diego, CA, USA). All experiments were independently performed 3 times. The graph of log IC50 values represents average values."}, "[2]": {"tested_on": "Hep3B", "conditions": "Homo sapiens, 24 h treatment", "experimental": "as §1"}, "[3]": {"tested_on": "Huh-7", "conditions": "Homo sapiens; Huh-7, 24 h treatment", "experimental": "as §1"}, "[4]": {"tested_on": "HepG2", "conditions": "Homo sapiens; HepG2, 24 h treatment", "experimental": "as §1"}, "[5]": {"tested_on": "AML12 normal liver cells", "conditions": "Mus musculus, AML12, 24 h, 24 h treatment", "experimental": "as §1"}}, "data": [{"molecule": "CNC(=O)c1cc(Oc2ccc(NC(=O)Nc3ccc(Cl)c(C(F)(F)F)c3)cc2)ccn1", "note": "[sorafenib, reference compound]", "values": [{"measurement": "IC50", "setting": "[1]", "value": "6.81 ± 0.76", "unit": "µM"}, {"measurement": "IC50", "setting": "[2]", "value": "3.64 ± 0.99", "unit": "µM"}, {"measurement": "IC50", "setting": "[3]", "value": "6.47 ± 0.88", "unit": "µM"}, {"measurement": "IC50", "setting": "[4]", "value": "3.85 ± 0.14", "unit": "µM"}, {"measurement": "IC50", "setting": "[5]", "value": "13.4 ± 2.77", "unit": "µM"}]}]}
